According to patent publication US20090036530A1, “Crystalline acid of lipoxin A4 analogs and method of making” (Bayer Schering Pharma Aktiengesellschaft, priority 2006, published 2009):

Experiment: Hygroscopicity study in automated water sorption analyzer (sorption/desorption isotherm)
Assay type: physicochemical
Protocol: Polymorph I of the free acid is transformed above 60% relative humidity into the hydrate. It is hygroscopic and adsorbs at 80% relative humidity approx. 8% moisture, which corresponds to a dihydrate of the substance. The hydration is reversible. Below 40% relative humidity a transformation into polymorph I is observed.
Data collection for the hygroscopicity studies was carried out in an automated water sorption analyzer. Approximately 10 mg of the investigated solid state form of the crystalline acid was exposed to a continuous flow of nitrogen with predetermined and constant relative humidity. The rate of sweep gas was set at 200 cm^3/min. For a basic assay, two full cycles (sorption/desorption) were measured at 25° C. The measurement was started at 0% relative humidity in order to remove surface water. Once the constant mass was achieved, the next humidity was automatically set. The water sorption/desorption was investigated in steps of 10% between 0% and 90% relative humidity under the criteria for initiation of the first step as set forth herein. Additionally, the sorption at about 98% relative humidity was investigated. Data was acquired using the DVSWin software.

relative humidity below which transformation into polymorph I is observed (desorption)	relative humidity above which polymorph I is transformed into the hydrate (25° C., water sorption)	moisture adsorbed (at 80% relative humidity, corresponds to a dihydrate)	hygroscopicity (in words) (sorption isotherm, FIG. 1)	reversibility of the hydration (sorption/desorption cycles)	Structure (SMILES)
Below 40 % relative humidity	–	–	–	–	O=C(O)COC[C@H](O)[C@H](O)/C=C/C=C/C#C/C=C/[C@H](O)COc1ccc(F)cc1 [hydrate, 2-((2S,3R,4E,6E,10E,12S)-13-(4-fluorophenoxy)-2,3,12-trihydroxytrideca-4,6,10-trien-8-ynyloxy)acetic acid]
–	above 60 % relative humidity	approx. 8%	hygroscopic	reversible	O=C(O)COC[C@H](O)[C@H](O)/C=C/C=C/C#C/C=C/[C@H](O)COc1ccc(F)cc1 [polymorph I, 2-((2S,3R,4E,6E,10E,12S)-13-(4-fluorophenoxy)-2,3,12-trihydroxytrideca-4,6,10-trien-8-ynyloxy)acetic acid]
